From PubChem BioAssay AID328 (DTP/NCI, 2004)
Several values for one entry are separate records, joined by “and”; a condition that tells them apart may be missing. Equal values may be shown once. Toxic doses and inconclusive results are not listed.

Test system: BDF1 mice, P388 leukemia ip, median survival T/C
Assay: NCI In Vivo Anticancer Drug Screen. Data for tumor model P388 Leukemia (intraperitoneal) in B6D2F1 (BDF1) mice
Conditions: endpoint: median survival time, higher = longer survival
Method in brief: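 Read-out is survival of treated animals expressed relative to the vehicle group, as a T/C ratio.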

[1] = dose: 1.5 mg/kg/injection, schedule: Q04DX003 (ip), vehicle: saline
[2] = dose: 12.5 mg/kg/injection, schedule: Q01DX005 (ip), vehicle: saline with Tween-80
[3] = dose: 25.0 mg/kg/injection, schedule: Q01DX005 (ip), vehicle: saline with Tween-80
[4] = dose: 6.25 mg/kg/injection, schedule: Q01DX009 (ip), vehicle: saline
[5] = dose: 12.5 mg/kg/injection, schedule: Q01DX009 (ip), vehicle: saline
[6] = dose: 25.0 mg/kg/injection, schedule: Q01DX009 (ip), vehicle: saline
[7] = dose: 50.0 mg/kg/injection, schedule: Q01DX009 (ip), vehicle: saline
[8] = dose: 100.0 mg/kg/injection, schedule: Q04DX003 (ip), vehicle: saline
[9] = dose: 200.0 mg/kg/injection, schedule: Q01DX009 (ip), vehicle: saline with Tween-80
[10] = dose: 400.0 mg/kg/injection, schedule: Q01DX009 (ip), vehicle: saline with Tween-80
[11] = dose: 100.0 mg/kg/injection, schedule: Q01DX009 (ip), vehicle: Klucel (hydroxypropylcellulose) (HPC)
[12] = dose: 200.0 mg/kg/injection, schedule: Q01DX009 (ip), vehicle: Klucel (hydroxypropylcellulose) (HPC)
[13] = dose: 400.0 mg/kg/injection, schedule: Q01DX009 (ip), vehicle: Klucel (hydroxypropylcellulose) (HPC)
[14] = dose: 100.0 mg/kg/injection, schedule: Q01DX009 (ip), vehicle: saline with Tween-80
[15] = dose: 100.0 mg/kg/injection, schedule: Q04DX003 (ip), vehicle: Klucel (hydroxypropylcellulose) (HPC)
[16] = dose: 200.0 mg/kg/injection, schedule: Q04DX003 (ip), vehicle: Klucel (hydroxypropylcellulose) (HPC)
[17] = dose: 400.0 mg/kg/injection, schedule: Q04DX003 (ip), vehicle: Klucel (hydroxypropylcellulose) (HPC)
[18] = dose: 50.0 mg/kg/injection, schedule: Q01DX009 (ip), vehicle: saline with Tween-80
[19] = dose: 100.0 mg/kg/injection, schedule: Q04DX003 (ip), vehicle: saline with Tween-80

Compound: NC(=O)c1cn(C2OC(CO)C(O)C2O)c2ncnc(N)c12 (configuration not stated)
- T/C (dose: 0.18 mg/kg/injection, schedule: Q01DX009 (ip), vehicle: saline with Tween-80): 183 % of control
- T/C (dose: 0.25 mg/kg/injection, schedule: Q01DX010 (ip), vehicle: water): 181 % of control
- T/C (dose: 0.37 mg/kg/injection, schedule: Q01DX009 (ip), vehicle: saline with Tween-80): 162 % of control
- T/C (dose: 0.5 mg/kg/injection, schedule: Q01DX010 (ip), vehicle: water): 190 % of control
- T/C (dose: 0.5 mg/kg/injection, schedule: Q04DX003 (ip), vehicle: saline): 163 % of control
- T/C (dose: 0.75 mg/kg/injection, schedule: Q01DX009 (ip), vehicle: saline with Tween-80): 187 % of control and 200 % of control
- T/C (dose: 0.75 mg/kg/injection, schedule: Q01DX010 (ip), vehicle: water): 177 % of control
- T/C (dose: 1.5 mg/kg/injection, schedule: Q01DX009 (ip), vehicle: saline with Tween-80): 195 % of control
- T/C [1]: 154 % of control
- T/C (dose: 2.0 mg/kg/injection, schedule: Q04DX003 (ip), vehicle: saline with Tween-80): 122 % of control
- T/C (dose: 3.0 mg/kg/injection, schedule: Q04DX003 (ip), vehicle: saline with Tween-80): 195 % of control
- T/C (dose: 3.0 mg/kg/injection, schedule: Q04DX003 (ip), vehicle: saline): 195 % of control
- T/C (dose: 6.0 mg/kg/injection, schedule: Q04DX003 (ip), vehicle: saline with Tween-80): 190 % of control
- T/C (dose: 6.0 mg/kg/injection, schedule: Q04DX003 (ip), vehicle: saline): 90 % of control

Compound: NC(=NCCCC(NC(=O)OCc1ccccc1)C(=O)NC(Cc1ccccc1)C(=O)OCc1ccccc1)NC(=O)OCc1ccccc1 (configuration not stated)
- T/C [2]: 92 % of control
- T/C [3]: 92 % of control
- T/C (dose: 50.0 mg/kg/injection, schedule: Q01DX005 (ip), vehicle: saline with Tween-80): 90 % of control and 101 % of control
- T/C (dose: 100.0 mg/kg/injection, schedule: Q01DX005 (ip), vehicle: saline with Tween-80): 97 % of control
- T/C (dose: 200.0 mg/kg/injection, schedule: Q01DX005 (ip), vehicle: saline with Tween-80): 107 % of control

Compound: CS(C)=O.CS(C)=O.CS(C)=O.[Cl][Rh]([Cl])[Cl]
- T/C (dose: 3.12 mg/kg/injection, schedule: Q01DX009 (ip), vehicle: saline): 114 % of control
- T/C [4]: 114 % of control
- T/C [5]: 116 % of control
- T/C [6]: 104 % of control and 116 % of control
- T/C [7]: 116 % of control
- T/C (dose: 50.0 mg/kg/injection, schedule: Q04DX003 (ip), vehicle: saline): 100 % of control
- T/C [8]: 109 % of control

Compound: CC#CCOCC1CN(c2ccccc2)C(=O)O1 (configuration not stated)
- T/C [8]: 92 % of control
- T/C [9]: 100 % of control
- T/C (dose: 200.0 mg/kg/injection, schedule: Q04DX003 (ip), vehicle: saline): 92 % of control
- T/C [10]: 100 % of control
- T/C (dose: 400.0 mg/kg/injection, schedule: Q04DX003 (ip), vehicle: saline): 100 % of control

Compound: ICCCCCCCCCC[n+]1ccc2ccccc2c1
- T/C [2]: 120 % of control
- T/C [3]: 122 % of control

Compound: CCOC(=O)NC(CC)CO (configuration not stated)
- T/C [11]: 100 % of control
- T/C [12]: 95 % of control
- T/C [13]: 90 % of control

Compound: CCOC(=O)c1cc2nc3ccccn3c(=O)c2cc1N
- T/C [14]: 100 % of control
- T/C [9]: 91 % of control

Compound: CC[n+]1c(-c2ccccc2)c2cc(N)ccc2c2ccc(N)cc21
- T/C (dose: 1.56 mg/kg/injection, schedule: Q01DX009 (ip), vehicle: saline): 151 % of control
- T/C (dose: 3.13 mg/kg/injection, schedule: Q01DX009 (ip), vehicle: saline): 178 % of control
- T/C (dose: 5.0 mg/kg/injection, schedule: Q01DX010 (ip), vehicle: saline): 155 % of control
- T/C (dose: 5.3 mg/kg/injection, schedule: Q01DX009 (ip), vehicle: saline): 208 % of control
- T/C [4]: 163 % of control
- T/C (dose: 6.25 mg/kg/injection, schedule: Q01DX009 (ip), vehicle: water): 163 % of control
- T/C (dose: 8.0 mg/kg/injection, schedule: Q01DX009 (ip), vehicle: saline): 198 % of control and 222 % of control
- T/C (dose: 12.0 mg/kg/injection, schedule: Q01DX009 (ip), vehicle: saline): 227 % of control and 196 % of control
- T/C (dose: 12.5 mg/kg/injection, schedule: Q01DX009 (ip), vehicle: saline with Tween-80): 113 % of control
- T/C (dose: 12.5 mg/kg/injection, schedule: Q01DX009 (ip), vehicle: water): 113 % of control
- T/C (dose: 20.0 mg/kg/injection, schedule: Q01DX010 (ip), vehicle: saline): 114 % of control and 120 % of control
- T/C (dose: 27.0 mg/kg/injection, schedule: Q01DX009 (ip), vehicle: saline): 97 % of control

Compound: Nc1ccccc1/C=C(\C(=O)O)c1cccc(Cl)c1
- T/C [15]: 95 % of control
- T/C [16]: 104 % of control
- T/C [17]: 100 % of control

Compound: Nc1cc(Cl)c2[nH]cnc2n1
- T/C [4]: 114 % of control
- T/C [5]: 100 % of control
- T/C [6]: 110 % of control
- T/C (dose: 50.0 mg/kg/injection, schedule: Q01DX005 (ip), vehicle: distilled water + Tween-80): 105 % of control
- T/C [7]: 115 % of control
- T/C (dose: 100.0 mg/kg/injection, schedule: Q01DX009 (ip), vehicle: saline): 100 % of control

Compound: CC1(C)SC(C)(C)N(C=O)C1C(=O)O (configuration not stated)
- T/C [11]: 90 % of control
- T/C [15]: 91 % of control
- T/C [12]: 109 % of control
- T/C [16]: 95 % of control
- T/C [13]: 90 % of control
- T/C [17]: 91 % of control

Compound: CC1(C)OC2C(CO)OC(n3cnc4c(N)ncnc43)C2O1 (configuration not stated)
- T/C (dose: 75.0 mg/kg/injection, schedule: Q04DX003 (ip), vehicle: Klucel (hydroxypropylcellulose) (HPC)): 100 % of control
- T/C (dose: 300.0 mg/kg/injection, schedule: Q04DX003 (ip), vehicle: Klucel (hydroxypropylcellulose) (HPC)): 100 % of control

Compound: Cc1ccc(S(=O)(=O)c2ccc([N+](=O)[O-])c3no[n+]([O-])c23)cc1
- T/C (dose: 25.0 mg/kg/injection, schedule: Q01DX009 (ip), vehicle: saline with Tween-80): 104 % of control
- T/C [18]: 108 % of control
- T/C [14]: 116 % of control

Compound: CCc1cccc(CC)c1-n1c(C)ccc1-c1ccccc1
- T/C (dose: 50.0 mg/kg/injection, schedule: Q01DX009 (ip), vehicle: saline + alcohol): 106 % of control
- T/C (dose: 100.0 mg/kg/injection, schedule: Q01DX009 (ip), vehicle: saline + alcohol): 101 % of control
- T/C (dose: 200.0 mg/kg/injection, schedule: Q01DX009 (ip), vehicle: saline + alcohol): 106 % of control

Compound: COc1cccc(CCCC(=O)O)c1
- T/C [16]: 95 % of control
- T/C [17]: 87 % of control

Compound: CC12CCC3C4CCC(=O)C(O)=C4CCC3C1CCC2OC(=O)CCC1CCCC1 (configuration not stated)
- T/C (dose: 100.0 mg/kg/injection, schedule: Q04DX003 (sc), vehicle: steriod suspending solution): 86 % of control
- T/C (dose: 400.0 mg/kg/injection, schedule: Q04DX003 (sc), vehicle: steriod suspending solution): 95 % of control

Compound: C[C@@H]1C[C@H]2CC[C@H](O2)[C@H](C)C(=O)O[C@@H](C)C[C@@H]2CC[C@@H](O2)[C@@H](C)C(=O)O[C@H](C)C[C@H]2CC[C@H](O2)[C@H](C)C(=O)O[C@@H](C)C[C@@H]2CC[C@@H](O2)[C@@H](C)C(=O)O1
- T/C [18]: 90 % of control
- T/C [14]: 109 % of control
- T/C [19]: 104 % of control
- T/C (dose: 200.0 mg/kg/injection, schedule: Q04DX003 (ip), vehicle: saline with Tween-80): 86 % of control

Compound: NC(=O)C1(C(N)=O)CCC1
- T/C [11]: 100 % of control
- T/C [15]: 100 % of control
- T/C [12]: 110 % of control
- T/C [16]: 100 % of control
- T/C [13]: 100 % of control
- T/C [17]: 100 % of control

Compound: Cc1c2cnccc2c(C)c2c1c1ccccc1n2CCNCCO
- T/C (dose: 0.44 mg/kg/injection, schedule: Q04DX003 (ip), vehicle: saline): 118 % of control
- T/C [1]: 109 % of control
- T/C [19]: 118 % of control
- T/C (dose: 150.0 mg/kg/injection, schedule: Q04DX003 (ip), vehicle: saline with Tween-80): 90 % of control

Compound: O=C1c2c(Cl)cccc2C(c2ccccc2)c2cccc(Cl)c21
- T/C [18]: 95 % of control
- T/C [14]: 104 % of control
- T/C [9]: 97 % of control

Compound: CCCCc1ccc(Sc2cccc3c2C(=O)c2c(Sc4ccc(CCCC)cc4)cccc2C3=O)cc1
- T/C [14]: 95 % of control
- T/C [9]: 90 % of control
- T/C [10]: 95 % of control
